Reference: patent US9216991B2 (Ares Trading S.A., priority 2012, dated 2015)

These molecules were tested against T1, IRAK4 (Homo sapiens, UniProt Q9NWZ3) (assay: IRAK4 Enzymatic Assay). Conditions: His-TEV-IRAK4 20 ng/well, ATP 2 μM, STK1-biotin peptide 300 nM, 3 hours at 30° C., FlashPlate radioactivity.
T1 construct: His (N); TEV cleavage site (N)
T1 sequence (Q9NWZ3 1-460): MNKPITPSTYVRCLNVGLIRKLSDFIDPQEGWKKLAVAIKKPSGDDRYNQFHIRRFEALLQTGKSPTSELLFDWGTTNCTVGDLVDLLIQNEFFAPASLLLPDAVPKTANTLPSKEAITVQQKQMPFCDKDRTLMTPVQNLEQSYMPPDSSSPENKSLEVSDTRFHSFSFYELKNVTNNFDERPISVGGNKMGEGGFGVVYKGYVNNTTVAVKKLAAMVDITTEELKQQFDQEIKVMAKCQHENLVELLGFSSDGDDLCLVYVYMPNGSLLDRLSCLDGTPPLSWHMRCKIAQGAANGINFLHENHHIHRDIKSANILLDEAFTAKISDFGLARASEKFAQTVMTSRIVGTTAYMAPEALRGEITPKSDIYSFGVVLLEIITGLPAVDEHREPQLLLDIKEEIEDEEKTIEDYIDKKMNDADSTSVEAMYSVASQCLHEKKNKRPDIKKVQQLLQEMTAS
Type: biochemical
Summary of the method: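 Recombinant His-TEV-tagged IRAK4 (20 ng/well) phosphorylates biotinylated STK1 peptide (300 nM) with 2 μM ATP plus [^33P]ATP, 3 h at 30 °C in pH 7.0 HEPES buffer with MgCl2 and MnCl2; compounds tested 20 μM to 1 nM. Reaction stopped with EDTA; incorporated radioactivity counted on streptavidin FlashPlates.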

Cn1cc(-c2cccc(-c3ncc(-c4cnn(CC(O)c5ccccn5)c4)cn3)c2)cn1 (stereo not shown) [Example 215, 2-(4-{2-[3-(1-Methyl-1H-pyrazol-4-yl)-phenyl]-pyrimidin-5-yl}-pyrazol-1-yl)-1-pyridin-2-yl-ethanol] and Cn1cc(-c2cccc(-c3ncc(-c4cnn([C@H]5C=C[C@@H](O)C5)c4)cn3)c2)cn1 [Example 231, (1S,4R)-4-[4-[2-[3-(1-methylpyrazol-4-yl)phenyl]pyrimidin-5-yl]pyrazol-1-yl]cyclopent-2-en-1-ol] fall in the same range of IC50: 100 to 1000 nM for the first, 100 to 1000 nM for the second.

Cn1cc(-c2cccc(-c3ncc(-c4cnn(C5CCSC5)c4)cn3)c2)cn1 (stereo not shown) [Example 216, 2-[3-(1-Methyl-1H-pyrazol-4-yl)-phenyl]-5-[1-(tetrahydro-thiophen-3-yl)-1H-pyrazol-4-yl]-pyrimidine] and Cn1cc(-c2cccc(-c3ncc(-c4cnn(C5CCCOC5)c4)cn3)c2)cn1 (stereo not shown) [Example 221, 2-[3-(1-Methyl-1H-pyrazol-4-yl)-phenyl]-5-[1-(tetrahydro-pyran-3-yl)-1H-pyrazol-4-yl]-pyrimidine] fall in the same range of IC50: 100 to 1000 nM for the first, 100 to 1000 nM for the second.

First: COCCO[C@H]1CC[C@H](n2cc(-c3cnc(-c4cccc(-c5cnn(C)c5)c4)nc3)cn2)CC1 [Example 217, trans-5-{1-[4-(2-Methoxy-ethoxy)-cyclohexyl]-1H-pyrazol-4-yl}-2-[3-(1-methyl-1H-pyrazol-4-yl)-phenyl]-pyrimidine]
Second: COCCO[C@H]1CC[C@@H](n2cc(-c3cnc(-c4cccc(-c5cnn(C)c5)c4)nc3)cn2)CC1 [Example 218, cis-5-{1-[4-(2-Methoxy-ethoxy)-cyclohexyl]-1H-pyrazol-4-yl}-2-[3-(1-methyl-1H-pyrazol-4-yl)-phenyl]-pyrimidine]
The IC50 of the first is lower: under 100 nM for the first, 100 to 1000 nM for the second. The first is the more potent here.

Cn1cc(-c2cccc(-c3ncc(-c4cnn([C@H]5CC[C@H](OCC6CC6)CC5)c4)cn3)c2)cn1 [Example 220, trans-5-[1-(4-Cyclopropylmethoxy-cyclohexyl)-1H-pyrazol-4-yl]-2-[3-(1-methyl-1H-pyrazol-4-yl)-phenyl]-pyrimidine] and Cn1cc(-c2cccc(-c3ncc(-c4cnn([C@H]5CC[C@H](CO)CC5)c4)cn3)c2)cn1 [Example 238, Trans-[4-(4-{2-[3-(1-Methyl-1H-pyrazol-4-yl)-phenyl]-pyrimidin-5-yl}-pyrazol-1-yl)-cyclohexyl]-methanol] cannot be ordered by IC50: under 100 nM for the first, under 100 nM for the second.

Compared with CN(C)C(=O)C1CC2(C1)CC(n1cc(-c3cnc(-c4cccc(-c5cnn(C)c5)c4)nc3)cn1)C2 (stereo not shown) [Example 222, 6-(4-{2-[3-(1-Methyl-1H-pyrazol-4-yl)-phenyl]-pyrimidin-5-yl}-pyrazol-1-yl)-spiro[3.3]heptane-2-carboxylic acid dimethylamide], CN(C)C[C@H]1CC[C@H](n2cc(-c3cnc(-c4cccc(-c5cnn(C)c5)c4)nc3)cn2)CC1 [Example 232, Trans-dimethyl-[4-(4-{2-[3-(1-methyl-1H-pyrazol-4-yl)-phenyl]-pyrimidin-5-yl}-pyrazol-1-yl)-cyclohexylmethyl]-amine] is lower in IC50: 100 to 1000 nM for the first, under 100 nM for the second.

CC(=O)N1CCCC(n2cc(-c3cnc(-c4cccc(-c5cnn(C)c5)c4)nc3)cn2)CC1 (stereo not shown) [Example 223, 1-[4-(4-{2-[3-(1-Methyl-1H-pyrazol-4-yl)-phenyl]-pyrimidin-5-yl}-pyrazol-1-yl)-azepan-1-yl]-ethanone] and CC(=O)N1CC[C@H](n2cc(-c3cnc(-c4cccc(-c5cnn(C)c5)c4)nc3)cn2)[C@@H](O)C1 [Example 225, 1-[(3S,4S)-3-Hydroxy-4-(4-{2-[3-(1-methyl-1H-pyrazol-4-yl)-phenyl]-pyrimidin-5-yl}-pyrazol-1-yl)-piperidin-1-yl]-ethanone] fall in the same range of IC50: 100 to 1000 nM for the first, 100 to 1000 nM for the second.

Cn1cc(-c2cccc(-c3ncc(-c4cnn([C@H]5CC[C@H](OCC(C)(C)O)CC5)c4)cn3)c2)cn1 [Example 224, trans-2-Methyl-1-[4-(4-{2-[3-(1-methyl-1H-pyrazol-4-yl)-phenyl]-pyrimidin-5-yl}-pyrazol-1-yl)-cyclohexyloxy]-propan-2-ol] and Cn1cc(-c2cccc(-c3ncc(-c4cnn([C@H]5CC[C@H](C(=O)NCC(C)(C)O)CC5)c4)cn3)c2)cn1 [Example 227, trans-4-(4-{2-[3-(1-Methyl-1H-pyrazol-4-yl)-phenyl]-pyrimidin-5-yl}-pyrazol-1-yl)-cyclohexanecarboxylic acid (2-hydroxy-2-methyl-propyl)-amide] cannot be ordered by IC50: under 100 nM for the first, under 100 nM for the second.

CC(O)CCNC(=O)[C@H]1CC[C@H](n2cc(-c3cnc(-c4cccc(-c5cnn(C)c5)c4)nc3)cn2)CC1 (stereo partly drawn) [Example 228, trans-4-(4-{2-[3-(1-Methyl-1H-pyrazol-4-yl)-phenyl]-pyrimidin-5-yl}-pyrazol-1-yl)-cyclohexanecarboxylic acid (3-hydroxy-butyl)-amide] and Cn1cc(-c2cccc(-c3ncc(-c4cnn([C@H]5CC[C@H](C(=O)NCC(O)CO)CC5)c4)cn3)c2)cn1 (stereo partly drawn) [Example 242, Trans-4-(4-{2-[3-(1-Methyl-1H-pyrazol-4-yl)-phenyl]-pyrimidin-5-yl}-pyrazol-1-yl)-cyclohexanecarboxylic acid (2,3-dihydroxy-propyl)-amide] cannot be ordered by IC50: under 100 nM for the first, under 100 nM for the second.

Cc1cc(-c2cccc(-c3ncc(-c4cnn([C@H]5CC[C@H](C(=O)N(C)C)CC5)c4)cn3)c2)ccn1 [Example 229, Trans-4-(4-{2-[3-(2-Methyl-pyridin-4-yl)-phenyl]-pyrimidin-5-yl}-pyrazol-1-yl)-cyclohexanecarboxylic acid dimethylamide] and CN(C)C(=O)[C@H]1CC[C@H](n2cc(-c3cnc(-c4cccc(-c5ccnnc5)c4)nc3)cn2)CC1 [Example 233, Trans-4-{4-[2-(3-Pyridazin-4-yl-phenyl)-pyrimidin-5-yl]-pyrazol-1-yl}-cyclohexanecarboxylic acid dimethylamide] fall in the same range of IC50: 100 to 1000 nM for the first, 100 to 1000 nM for the second.

Cn1cc(-c2cccc(-c3ncc(-c4cnn([C@H]5CC[C@H](C(=O)NCC#N)CC5)c4)cn3)c2)cn1 [Example 230, trans-4-(4-{2-[3-(1-Methyl-1H-pyrazol-4-yl)-phenyl]-pyrimidin-5-yl}-pyrazol-1-yl)-cyclohexanecarboxylic acid cyanomethyl-amide] and Cn1cc(-c2cccc(-c3ncc(-c4cnn([C@H]5CC[C@H](C(=O)N6C[C@H](O)[C@@H](O)C6)CC5)c4)cn3)c2)cn1 [Example 244, ((3S,4S)-3,4-Dihydroxy-pyrrolidin-1-yl)-[4-(4-{2-[3-(1-methyl-1H-pyrazol-4-yl)-phenyl]-pyrimidin-5-yl}-pyrazol-1-yl)-cyclohexyl]-methanone] cannot be ordered by IC50: under 100 nM for the first, under 100 nM for the second.

CN(C)C(=O)[C@H]1CC[C@H](n2cc(-c3cnc(-c4cccc(-c5ccc(Cl)nn5)c4)nc3)cn2)CC1 [Example 234, Trans-4-(4-{2-[3-(6-Chloro-pyridazin-3-yl)-phenyl]-pyrimidin-5-yl}-pyrazol-1-yl)-cyclohexanecarboxylic acid dimethylamide] and Cc1ccc(-c2cccc(-c3ncc(-c4cnn([C@H]5CC[C@H](C(=O)N(C)C)CC5)c4)cn3)c2)nn1 [Example 237, Trans-4-(4-{2-[3-(6-Methyl-pyridazin-3-yl)-phenyl]-pyrimidin-5-yl}-pyrazol-1-yl)-cyclohexanecarboxylic acid dimethylamide] fall in the same range of IC50: 1000 to 5000 nM for the first, 1000 to 5000 nM for the second.

CN(C)C(=O)[C@H]1CC[C@H](n2cc(-c3cnc(-c4cccc(-c5ccc(N)nn5)c4)nc3)cn2)CC1 [Example 239, Trans-4-(4-{2-[3-(6-Amino-pyridazin-3-yl)-phenyl]-pyrimidin-5-yl}-pyrazol-1-yl)-cyclohexanecarboxylic acid dimethylamide] and Cc1cc(-c2cccc(-c3ncc(-c4cnn([C@H]5CC[C@H](O)CC5)c4)cn3)c2)cnn1 [Example 247, trans-4-(4-{2-[3-(6-Methyl-pyridazin-4-yl)-phenyl]-pyrimidin-5-yl}-pyrazol-1-yl)-cyclohexanol] fall in the same range of IC50: 100 to 1000 nM for the first, 100 to 1000 nM for the second.

Compared with C[C@@H]1C[C@H](n2cc(-c3cnc(-c4cccc(-c5cnn(C)c5)c4)nc3)cn2)CCN1 [Example 243, 5-[1-((2R,4R)-2-Methyl-piperidin-4-yl)-1H-pyrazol-4-yl]-2-[3-(1-methyl-1H-pyrazol-4-yl)-phenyl]-pyrimidine formic acid], C[C@H]1C[C@@H](n2cc(-c3cnc(-c4cccc(-c5cnn(C)c5)c4)nc3)cn2)CCN1 [Example 246, 5-[1-((2S,4S)-2-Methyl-piperidin-4-yl)-1H-pyrazol-4-yl]-2-[3-(1-methyl-1H-pyrazol-4-yl)-phenyl]-pyrimidine] is lower in IC50: 100 to 1000 nM for the first, under 100 nM for the second.

First: CC(=O)N1CC[C@H](n2cc(-c3cnc(-c4cccc(-c5cnn(C)c5)c4)nc3)cn2)C[C@@H]1C [Example 248, 1-[(2S,4S)-2-Methyl-4-(4-{2-[3-(1-methyl-1H-pyrazol-4-yl)-phenyl]-pyrimidin-5-yl}-pyrazol-1-yl)-piperidin-1-yl]-ethanone]
Second: CC(=O)N1CC[C@@H](n2cc(-c3cnc(-c4cccc(-c5cnn(C)c5)c4)nc3)cn2)C[C@H]1C [Example 249, 1-[(2R,4R)-2-Methyl-4-(4-{2-[3-(1-methyl-1H-pyrazol-4-yl)-phenyl]-pyrimidin-5-yl}-pyrazol-1-yl)-piperidin-1-yl]-ethanone]
The IC50 of the first is lower: under 100 nM for the first, 100 to 1000 nM for the second. The first is the more potent here.
